Data from US8575213B2, “Pyrethrinoid-type esters as pesticides” (Sumitomo Chemical Company, Limited, priority 2010, dated 2013).

Test system: houseflies
Assay: Knockdown test on houseflies, oil solution sprayed in a 70 cm cubic chamber
Type: in vivo
Conditions: 0.00625% (w/v) oil solution, 0.7 ml sprayed in cubic chamber of 70 cm side length, ten houseflies (5 of each male and female), repeated twice
Procedure: Each of the present invention compounds (1) and (2) (0.00625 parts) produced in the aforementioned Production
Examples was dissolved in 10 parts of dichloromethane and the resulting solution was mixed with 89.99375 parts of an isoparafin solvent (Isper M, registered trademark of Exxon Chemical Company) to prepare a 0.00625% (w/v) oil solution.
Ten houseflies (5 of each male and female) were released in a cubic chamber having a side length of 70 cm and then 0.7 ml of the present invention compound (1) was sprayed through a small window at an inlet of the chamber using a spray gun (spray pressure: 0.9 kg/cm^2). The number of knockdowned houseflies was counted after a given time had passed since completion of spraying, and a knockdown rate (KD rate) was determined (repeated twice). The test was carried out in the same manner, except that the present invention compound (2) was used in place of the present invention compound (1), and then a knockdown rate was determined after a given time (repeated twice).

Row | Compound | Knockdown rate (%) after 7 minutes
1 | C=C/C(C#N)=C/[C@@H]1[C@@H](C(=O)OCc2c(F)c(F)c(COC)c(F)c2F)C1(C)C [Present invention Compound (1), 4-methoxymethyl-2,3,5,6-tetrafluorobenzyl=(1R)-trans-3-[(1Z)-2-cyano-1,3-butadienyl]-2,2-dimethylcyclopropane carboxylate] | 100%
2 | C/C=C/C(C#N)=C/[C@@H]1[C@@H](C(=O)OCc2c(F)c(F)c(COC)c(F)c2F)C1(C)C [Present invention compound (2), 4-methoxymethyl-2,3,5,6-tetrafluorobenzyl=(1R)-trans-3-[(1Z,3E)-2-cyano-1,3-pentadienyl]-2,2-dimethylcyclopropane carboxylate] | 100%
